Results as given in patent US7074789B2, “Kinase inhibitors” (Amgen Inc., priority 1999, dated 2006).

Experiments:
Type in all cases: biochemical
Lck = biological target: T1, Lck (Homo sapiens, UniProt P06239); experiment: Kinase inhibition assay (33P transfer), Lck; details: Table 3; for IC50: read-out: Lck-1
T1 construct: Kinases are expressed as either kinase domains or full length constructs; made in house
How it was run: (§1)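 Radiometric readout: 33P incorporated into surface-bound poly(Glu,Tyr) 4:1 or poly(Arg,Ser) 3:1 is counted by liquid scintillation after a 0.5% phosphoric acid wash. Enzymes were GST or polyHis fusions (kinase domain or full length) from E. coli or High Five insect cells.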

Lyn = biological target: T2, Lyn (Homo sapiens, UniProt P07948); experiment: Kinase inhibition assay (33P transfer), Lyn; details: Table 6, Lyn-1 kinase inhibition class
T2 construct: Kinases are expressed as either kinase domains or full length constructs; made in house
How it was run: (§2)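 IC50: inhibitor concentration lowering 33P incorporation into immobilised substrate by 50%. Label transferred from ATP to poly(Glu,Tyr) 4:1 or poly(Arg,Ser) 3:1 is measured after a 0.5% phosphoric acid wash by liquid scintillation.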

Fyn = biological target: T3, Fyn (Homo sapiens, UniProt P06241); experiment: Kinase inhibition assay (33P transfer), Fyn; details: for IC50: read-out: Fyn-1
T3 construct: Kinases are expressed as either kinase domains or full length constructs; made in house
T3 sequence (P06241 whole entry, species assumed, the tested form may be a part): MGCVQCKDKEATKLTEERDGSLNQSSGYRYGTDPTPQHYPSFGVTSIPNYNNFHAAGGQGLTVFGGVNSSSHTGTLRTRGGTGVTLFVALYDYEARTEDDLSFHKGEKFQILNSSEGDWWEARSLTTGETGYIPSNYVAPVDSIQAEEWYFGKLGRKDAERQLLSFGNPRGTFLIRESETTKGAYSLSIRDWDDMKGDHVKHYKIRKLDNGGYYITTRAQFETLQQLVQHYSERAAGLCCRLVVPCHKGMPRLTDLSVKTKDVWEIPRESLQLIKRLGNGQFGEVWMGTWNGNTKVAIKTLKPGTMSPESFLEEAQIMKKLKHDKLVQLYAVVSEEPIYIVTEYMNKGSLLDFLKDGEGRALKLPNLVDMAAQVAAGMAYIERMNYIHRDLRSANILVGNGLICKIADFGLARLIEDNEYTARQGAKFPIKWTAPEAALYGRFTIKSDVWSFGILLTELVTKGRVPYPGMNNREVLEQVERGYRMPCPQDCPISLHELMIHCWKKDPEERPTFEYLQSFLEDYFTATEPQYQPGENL
How it was run: as §2

Zap-70 = biological target: T4, Zap-70 (Homo sapiens, UniProt P43403); experiment: Kinase inhibition assay (33P transfer), Zap-70; details: Table 3; for IC50: read-out: Zap-1
T4 construct: Kinases are expressed as either kinase domains or full length constructs; made in house
T4 sequence (P43403 1-619): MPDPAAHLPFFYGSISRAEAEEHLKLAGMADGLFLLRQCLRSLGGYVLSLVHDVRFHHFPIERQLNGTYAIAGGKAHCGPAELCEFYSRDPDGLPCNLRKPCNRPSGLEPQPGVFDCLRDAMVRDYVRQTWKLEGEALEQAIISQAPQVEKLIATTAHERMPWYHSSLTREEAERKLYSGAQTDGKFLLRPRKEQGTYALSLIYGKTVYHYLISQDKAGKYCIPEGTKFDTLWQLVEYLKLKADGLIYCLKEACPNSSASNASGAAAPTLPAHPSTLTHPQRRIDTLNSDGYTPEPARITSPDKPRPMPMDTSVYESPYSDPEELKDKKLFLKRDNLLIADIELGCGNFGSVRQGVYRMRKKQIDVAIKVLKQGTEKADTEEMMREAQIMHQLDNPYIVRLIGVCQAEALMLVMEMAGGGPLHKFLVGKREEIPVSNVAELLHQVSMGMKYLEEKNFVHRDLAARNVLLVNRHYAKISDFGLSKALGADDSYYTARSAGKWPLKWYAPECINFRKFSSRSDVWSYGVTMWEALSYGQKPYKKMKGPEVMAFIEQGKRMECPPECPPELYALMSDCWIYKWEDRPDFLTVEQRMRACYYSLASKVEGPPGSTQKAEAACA
How it was run: as §1

Itk = biological target: T5, Itk (Homo sapiens, UniProt Q08881); experiment: Kinase inhibition assay (33P transfer), Itk; details: Table 3; for IC50: read-out: Itk-1
T5 construct: Kinases are expressed as either kinase domains or full length constructs; made in house
T5 sequence (Q08881 1-620): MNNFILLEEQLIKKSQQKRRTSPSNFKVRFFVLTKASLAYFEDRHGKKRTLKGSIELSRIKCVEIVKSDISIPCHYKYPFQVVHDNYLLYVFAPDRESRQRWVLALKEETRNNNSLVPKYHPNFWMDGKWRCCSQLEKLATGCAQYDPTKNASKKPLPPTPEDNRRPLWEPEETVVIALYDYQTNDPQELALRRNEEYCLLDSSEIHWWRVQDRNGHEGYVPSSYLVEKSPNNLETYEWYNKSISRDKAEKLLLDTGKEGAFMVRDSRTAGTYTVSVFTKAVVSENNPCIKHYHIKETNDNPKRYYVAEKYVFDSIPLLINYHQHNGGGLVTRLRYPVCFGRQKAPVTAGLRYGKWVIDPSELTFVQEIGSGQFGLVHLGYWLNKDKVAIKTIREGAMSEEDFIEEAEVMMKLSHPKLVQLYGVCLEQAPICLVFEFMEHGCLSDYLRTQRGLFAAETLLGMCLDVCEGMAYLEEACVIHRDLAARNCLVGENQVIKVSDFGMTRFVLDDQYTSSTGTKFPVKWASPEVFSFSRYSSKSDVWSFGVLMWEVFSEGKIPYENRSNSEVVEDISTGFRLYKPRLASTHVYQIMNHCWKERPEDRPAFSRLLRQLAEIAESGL
How it was run: as §2

Kdr = biological target: T6, Kdr (Homo sapiens, UniProt P35968); experiment: Kinase inhibition assay (33P transfer), Kdr; details: Table 3; for IC50: read-out: KDR-1
T6 construct: Kinases are expressed as either kinase domains or full length constructs; made in house
How it was run: as §1

Flt-1 = biological target: T7, Flt-1 (Homo sapiens, UniProt P17948); experiment: Kinase inhibition assay (33P transfer), Flt-1
T7 construct: Kinases are expressed as either kinase domains or full length constructs; made in house
How it was run: as §2

c-Met = biological target: T8, c-Met (Homo sapiens, UniProt P08581); experiment: Kinase inhibition assay (33P transfer), c-Met; details: Table 2, kinase inhibition class; for IC50: read-out: Met-1
T8 construct: Kinases are expressed as either kinase domains or full length constructs; made in house
T8 sequence (P08581 25-1390): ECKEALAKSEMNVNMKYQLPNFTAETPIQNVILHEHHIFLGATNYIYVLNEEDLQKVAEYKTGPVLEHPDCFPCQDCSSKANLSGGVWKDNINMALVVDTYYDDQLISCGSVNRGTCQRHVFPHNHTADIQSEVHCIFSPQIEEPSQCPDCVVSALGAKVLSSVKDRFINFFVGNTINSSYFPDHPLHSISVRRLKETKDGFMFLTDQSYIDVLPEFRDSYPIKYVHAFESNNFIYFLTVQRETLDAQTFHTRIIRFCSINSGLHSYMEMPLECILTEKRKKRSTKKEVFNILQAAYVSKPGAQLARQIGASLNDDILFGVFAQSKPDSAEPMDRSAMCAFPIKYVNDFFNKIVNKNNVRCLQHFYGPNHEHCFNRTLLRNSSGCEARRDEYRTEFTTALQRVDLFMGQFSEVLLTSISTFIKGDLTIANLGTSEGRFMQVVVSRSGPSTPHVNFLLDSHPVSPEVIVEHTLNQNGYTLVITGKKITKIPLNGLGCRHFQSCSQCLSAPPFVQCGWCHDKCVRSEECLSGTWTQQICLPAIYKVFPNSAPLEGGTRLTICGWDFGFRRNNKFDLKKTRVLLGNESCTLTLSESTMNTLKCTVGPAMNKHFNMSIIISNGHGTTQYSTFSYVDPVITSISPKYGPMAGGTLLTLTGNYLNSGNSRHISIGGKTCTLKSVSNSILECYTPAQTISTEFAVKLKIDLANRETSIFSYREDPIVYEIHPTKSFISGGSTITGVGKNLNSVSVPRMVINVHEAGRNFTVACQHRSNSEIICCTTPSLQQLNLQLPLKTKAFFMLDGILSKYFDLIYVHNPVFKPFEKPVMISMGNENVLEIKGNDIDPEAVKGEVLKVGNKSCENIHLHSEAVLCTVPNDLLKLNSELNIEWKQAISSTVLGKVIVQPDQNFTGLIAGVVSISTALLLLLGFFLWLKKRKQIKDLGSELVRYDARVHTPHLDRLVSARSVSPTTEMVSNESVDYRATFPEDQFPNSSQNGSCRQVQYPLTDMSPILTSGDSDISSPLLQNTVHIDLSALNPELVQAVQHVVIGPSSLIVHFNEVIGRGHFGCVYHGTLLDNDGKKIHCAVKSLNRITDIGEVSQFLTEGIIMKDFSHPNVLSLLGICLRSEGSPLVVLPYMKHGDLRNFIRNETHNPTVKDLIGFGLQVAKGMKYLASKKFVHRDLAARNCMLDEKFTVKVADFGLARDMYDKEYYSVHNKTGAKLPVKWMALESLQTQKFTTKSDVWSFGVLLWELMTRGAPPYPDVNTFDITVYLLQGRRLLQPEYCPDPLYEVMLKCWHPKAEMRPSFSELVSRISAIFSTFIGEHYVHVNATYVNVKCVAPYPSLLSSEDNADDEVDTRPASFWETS
How it was run: as §2

AKT = biological target: T9, AKT (Homo sapiens, UniProt Q9Y243); experiment: Kinase inhibition assay (33P transfer), AKT; details: Table 2, kinase inhibition class; for IC50: read-out: AKT3-1
T9 construct: Kinases are expressed as either kinase domains or full length constructs; made in house
T9 sequence (Q9Y243 whole entry, the tested form may be a part): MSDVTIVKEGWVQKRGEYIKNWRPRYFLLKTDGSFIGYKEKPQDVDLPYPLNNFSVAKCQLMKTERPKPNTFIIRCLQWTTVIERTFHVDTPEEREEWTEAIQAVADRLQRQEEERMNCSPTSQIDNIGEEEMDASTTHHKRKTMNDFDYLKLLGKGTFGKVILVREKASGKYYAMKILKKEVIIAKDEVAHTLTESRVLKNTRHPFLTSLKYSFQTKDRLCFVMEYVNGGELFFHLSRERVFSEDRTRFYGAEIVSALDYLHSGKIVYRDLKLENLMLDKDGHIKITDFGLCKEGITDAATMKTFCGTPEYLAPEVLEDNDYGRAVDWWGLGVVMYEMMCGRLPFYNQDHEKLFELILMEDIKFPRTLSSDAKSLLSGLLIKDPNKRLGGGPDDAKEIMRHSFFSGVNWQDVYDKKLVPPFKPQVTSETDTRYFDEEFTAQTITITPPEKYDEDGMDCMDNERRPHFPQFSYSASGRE
How it was run: as §1

IGFR-1 = biological target: T10, IGFR-1 (Homo sapiens, UniProt P08069); experiment: Kinase inhibition assay (33P transfer), IGFR-1; details: Table 2, kinase inhibition class
T10 construct: Kinases are expressed as either kinase domains or full length constructs; made in house
T10 sequence (P08069 31-1367): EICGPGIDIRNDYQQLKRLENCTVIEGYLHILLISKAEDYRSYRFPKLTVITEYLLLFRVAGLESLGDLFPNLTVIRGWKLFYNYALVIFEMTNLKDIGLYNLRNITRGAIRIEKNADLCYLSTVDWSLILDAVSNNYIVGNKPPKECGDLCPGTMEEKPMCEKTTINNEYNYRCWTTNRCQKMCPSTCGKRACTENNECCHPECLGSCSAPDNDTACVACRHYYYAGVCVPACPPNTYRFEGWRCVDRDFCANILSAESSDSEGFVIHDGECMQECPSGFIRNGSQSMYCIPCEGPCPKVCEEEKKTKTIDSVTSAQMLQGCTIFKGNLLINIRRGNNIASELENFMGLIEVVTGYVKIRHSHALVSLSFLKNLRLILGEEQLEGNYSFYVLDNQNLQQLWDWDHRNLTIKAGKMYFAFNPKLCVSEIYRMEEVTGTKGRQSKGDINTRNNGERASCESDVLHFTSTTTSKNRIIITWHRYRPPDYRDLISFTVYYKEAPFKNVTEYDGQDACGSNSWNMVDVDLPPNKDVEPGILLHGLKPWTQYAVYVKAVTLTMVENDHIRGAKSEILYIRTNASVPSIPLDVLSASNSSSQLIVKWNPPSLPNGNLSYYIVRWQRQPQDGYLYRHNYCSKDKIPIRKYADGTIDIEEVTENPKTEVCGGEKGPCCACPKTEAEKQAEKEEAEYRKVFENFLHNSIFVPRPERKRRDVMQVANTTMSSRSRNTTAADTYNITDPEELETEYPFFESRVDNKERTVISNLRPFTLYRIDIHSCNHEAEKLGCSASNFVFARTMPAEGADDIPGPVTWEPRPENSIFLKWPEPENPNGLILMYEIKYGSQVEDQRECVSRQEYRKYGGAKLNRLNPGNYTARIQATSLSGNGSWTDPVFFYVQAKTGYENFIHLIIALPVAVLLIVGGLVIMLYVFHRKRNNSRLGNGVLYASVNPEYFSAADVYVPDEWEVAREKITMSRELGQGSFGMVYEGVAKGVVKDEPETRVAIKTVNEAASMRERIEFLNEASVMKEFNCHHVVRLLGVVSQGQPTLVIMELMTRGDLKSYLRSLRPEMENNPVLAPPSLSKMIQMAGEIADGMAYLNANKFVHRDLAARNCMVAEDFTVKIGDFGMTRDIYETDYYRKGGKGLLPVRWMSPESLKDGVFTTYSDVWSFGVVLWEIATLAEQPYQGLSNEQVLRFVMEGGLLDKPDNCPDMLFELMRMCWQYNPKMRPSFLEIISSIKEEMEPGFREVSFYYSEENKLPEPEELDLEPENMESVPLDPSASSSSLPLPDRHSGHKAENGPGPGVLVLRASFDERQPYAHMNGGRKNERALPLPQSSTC

PDGFRB = biological target: T11, PDGFRB (Homo sapiens, UniProt P09619); experiment: Kinase inhibition assay (33P transfer), PDGFRB; details: read-out: PDGFRB-1
T11 construct: Kinases are expressed as either kinase domains or full length constructs; made in house

Hck-1 = biological target: T12, Hck-1 (Homo sapiens, UniProt P08631); experiment: Kinase inhibition assay (33P transfer), Hck; details: Table 6, Hck-1 kinase inhibition class
T12 construct: Kinases are expressed as either kinase domains or full length constructs; made in house
T12 sequence (P08631 whole entry, the tested form may be a part): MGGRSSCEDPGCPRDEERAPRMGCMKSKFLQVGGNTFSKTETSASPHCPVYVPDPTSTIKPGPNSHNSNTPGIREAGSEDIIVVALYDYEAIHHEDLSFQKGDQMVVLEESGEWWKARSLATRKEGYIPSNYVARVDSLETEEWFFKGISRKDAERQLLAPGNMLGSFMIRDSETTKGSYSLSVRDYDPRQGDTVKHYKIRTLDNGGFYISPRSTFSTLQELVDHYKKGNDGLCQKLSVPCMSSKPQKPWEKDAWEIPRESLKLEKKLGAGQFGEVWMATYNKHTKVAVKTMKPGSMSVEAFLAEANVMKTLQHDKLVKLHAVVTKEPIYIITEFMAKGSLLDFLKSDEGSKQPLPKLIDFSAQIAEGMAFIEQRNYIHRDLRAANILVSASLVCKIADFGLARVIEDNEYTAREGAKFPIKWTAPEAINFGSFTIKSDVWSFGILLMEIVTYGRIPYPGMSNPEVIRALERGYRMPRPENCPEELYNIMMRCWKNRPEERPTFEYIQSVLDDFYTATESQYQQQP

FGFR1 = biological target: T13, FGFR1 (Homo sapiens, UniProt P11362); experiment: Kinase inhibition assay (33P transfer), FGFR1; details: read-out: FGFR1-1
T13 construct: Kinases are expressed as either kinase domains or full length constructs; made in house

ErbB4 = biological target: T14, ErbB4 (Homo sapiens, UniProt Q15303); experiment: Kinase inhibition assay (33P transfer), ErbB4; details: read-out: ErbB4-1
T14 construct: Kinases are expressed as either kinase domains or full length constructs; made in house

T1 sequence (P06239 whole entry, species assumed, the tested form may be a part): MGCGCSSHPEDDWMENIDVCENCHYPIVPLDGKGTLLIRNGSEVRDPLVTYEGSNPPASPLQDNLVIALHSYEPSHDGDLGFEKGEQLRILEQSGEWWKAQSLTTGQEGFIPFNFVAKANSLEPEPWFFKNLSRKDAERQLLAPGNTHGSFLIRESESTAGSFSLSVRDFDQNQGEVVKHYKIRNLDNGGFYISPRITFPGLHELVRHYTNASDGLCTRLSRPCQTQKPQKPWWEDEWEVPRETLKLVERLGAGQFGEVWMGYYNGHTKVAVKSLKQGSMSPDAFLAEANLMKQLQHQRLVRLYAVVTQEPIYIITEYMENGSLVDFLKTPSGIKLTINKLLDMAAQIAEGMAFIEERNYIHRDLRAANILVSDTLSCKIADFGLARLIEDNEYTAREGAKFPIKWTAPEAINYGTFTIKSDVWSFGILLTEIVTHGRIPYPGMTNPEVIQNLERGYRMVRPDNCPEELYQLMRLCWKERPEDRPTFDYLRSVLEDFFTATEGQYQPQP

| IC50 (Lck) [µM] | IC50 (Lyn) [µM] | IC50 (Fyn) [µM] | IC50 (Zap-70) [µM] | IC50 (Itk) [µM] | IC50 (Kdr) [nM] | IC50 (Flt-1) [nM] | IC50 (c-Met) [µM] | IC50 (AKT) [µM] | IC50 (IGFR-1) [µM] | IC50 (PDGFRB) [µM] | IC50 (Hck-1) [µM] | IC50 (FGFR1) [µM] | SMILES | other results |
| --- | --- | --- | --- | --- | --- | --- | --- | --- | --- | --- | --- | --- | --- | --- |
| 0.968 to 5.81 | > 10.9 | > 10.9 | > 10.9 | > 10.9 | < 968 | < 968 | > 10.9 | > 10.9 | > 10.9 | < 0.968 | > 10.9 | > 10.9 | COc1ccc(Nc2ncnc(Nc3cc(OC)c(OC)c(OC)c3)n2)cc1OC [Compound 36] | – |
| 6.04 to 8.81 | – | – | > 11.3 | > 11.3 | < 1010 | < 1010 | 1.01 to 6.04 | > 11.3 | 6.04 to 8.81 | < 1.01 | – | 1.01 to 6.04 | COc1ccc(N(C)c2ncnc(Nc3cc(OC)c(OC)c(OC)c3)n2)cc1 [Compound 106] | IC50 (ErbB4): 6.04 to 8.81 µM |
| 0.856 to 5.13 | 0.856 to 5.13 | 5.13 to 7.49 | > 9.63 | 0.856 to 5.13 | < 856 | < 856 | < 0.856 | 5.13 to 7.49 | < 0.856 | 0.856 to 5.13 | 5.13 to 7.49 | 0.856 to 5.13 | COCCOc1ccc(Nc2ncnc(Nc3cc(-c4ccco4)n[nH]3)n2)cc1OCCOC [Compound 328] | – |
| > 12.3 | – | – | > 12.3 | > 12.3 | < 1090 | > 12300 | > 12.3 | > 12.3 | 6.55 to 9.55 | > 12.3 | – | > 12.3 | COc1ccc(Nc2ncnc(Nc3ccc(N(C)C)cc3)n2)cc1OC [Compound 114] | – |
| 8.94 to 11.5 | > 11.5 | > 11.5 | 8.94 to 11.5 | > 11.5 | < 1020 | 6130 to 8940 | 8.94 to 11.5 | > 11.5 | > 11.5 | < 1.02 | > 11.5 | > 11.5 | COc1cc(Nc2ncnc(-n3cc(C)c4ccccc43)n2)cc(OC)c1OC [Compound 323] | – |
| > 13.3 | > 13.3 | 10.3 to 13.3 | > 13.3 | > 13.3 | < 1180 | 7090 to 10300 | > 13.3 | > 13.3 | > 13.3 | 7.09 to 10.3 | > 13.3 | > 13.3 | COc1cc(Nc2ncnc(-c3ccccc3)n2)cc(OC)c1OC [Compound 970] | – |
| 8.45 to 10.9 | > 10.9 | > 10.9 | > 10.9 | > 10.9 | 965 to 5790 | – | > 10.9 | > 10.9 | > 10.9 | – | > 10.9 | – | COc1cc(Nc2ncnc(Nc3cc(OC)c(OC)c(OC)c3)n2)cc(OC)n1 [Compound 253] | – |
| > 12.6 | – | – | 6.74 to 9.83 | > 12.6 | 6740 to 9830 | – | > 12.6 | > 12.6 | > 12.6 | > 12.6 | – | – | Cc1cccc(Nc2ncnc(Nc3cccc(Br)c3)n2)c1 [Compound 109] | IC50 (ErbB4): > 12.6 µM |
| 10.1 to 13 | – | – | > 13 | > 13 | 1160 to 6950 | 1160 to 6950 | > 13 | > 13 | > 13 | > 13 | – | > 13 | COc1cc(Nc2ncnc(N3CCCCC3)n2)cc(OC)c1OC [Compound 207] | – |
| > 10.1 | > 10.1 | > 10.1 | > 10.1 | 0.9 to 5.4 | < 900 | < 900 | > 10.1 | > 10.1 | < 0.9 | > 10.1 | > 10.1 | < 0.9 | COc1cc(Nc2ncnc(-n3c(N)nc4ccccc43)n2)ccc1OCCn1ccnn1 [Compound 324] | – |
| 1.05 to 6.33 | 1.05 to 6.33 | 1.05 to 6.33 | > 11.9 | > 11.9 | < 1050 | < 1050 | 9.22 to 11.9 | > 11.9 | > 11.9 | < 1.05 | > 11.9 | 6.33 to 9.22 | COc1cc(Nc2ncnc(N3CCc4ccccc43)n2)cc(OC)c1OC [Compound 184] | – |
| < 1.01 | < 1.01 | 1.01 to 6.04 | > 11.3 | 6.04 to 8.81 | < 1010 | < 1010 | > 11.3 | > 11.3 | < 1.01 | 1.01 to 6.04 | > 11.3 | 1.01 to 6.04 | COc1cc(Nc2ncnc(Nc3ccc4c(c3)OCO4)n2)cc(OC)c1OC [Compound 252] | – |
| 6.04 to 8.81 | > 11.3 | 1.01 to 6.04 | > 11.3 | > 11.3 | 1010 to 6040 | 1010 to 6040 | > 11.3 | > 11.3 | 6.04 to 8.81 | 1.01 to 6.04 | > 11.3 | > 11.3 | COc1cc(Nc2ncnc(Nc3ccc(C(=O)O)cc3)n2)cc(OC)c1OC [Compound 104] | – |
| – | – | – | – | – | – | – | – | – | – | – | – | – | COc1ccc(Nc2ncnc(Nc3cc(OC)c(OC)c(OC)c3)n2)cn1 [Compound 28] | Lck-1 (Lck): B (B>0.4 and <2.4 ug/mL); Lyn-1 (Lyn): B (B>0.4 and <2.4 ug/mL); Fyn-1 (Fyn): B (B>0.4 and <2.4 ug/mL); Zap-1 (Zap-70): E (E>4.5 ug/mL); Itk-1 (Itk): E (E>4.5 ug/mL); KDR-1 (Kdr): A (A<0.4 ug/mL); Met-1 (c-Met): E (E>4.5 ug/mL); AKT3-1 (AKT): E (E>4.5 ug/mL); IGFR-1 (IGFR-1): B (B>0.4 and <2.4 ug/mL); Hck-1 (Hck-1): E (E>4.5 ug/mL) |
| 1.14 to 6.87 | > 12.9 | > 12.9 | > 12.9 | 1.14 to 6.87 | < 1140 | < 1140 | 1.14 to 6.87 | 6.87 to 10 | < 1.14 | 1.14 to 6.87 | > 12.9 | < 1.14 | COc1ccc(Nc2ncnc(-n3c(N)nc4ccccc43)n2)cc1O [Compound 286] | – |
| 0.963 to 5.78 | – | – | 5.78 to 8.42 | 0.963 to 5.78 | 963 to 5780 | > 10800 | < 0.963 | > 10.8 | 8.42 to 10.8 | > 10.8 | – | > 10.8 | COc1ccc(Nc2ncnc(Nc3ccc(Oc4ccccc4)cc3)n2)cc1OC [Compound 929] | IC50 (ErbB4): 0.963 to 5.78 µM |
